In general, MIC refers to the least concentration at which growth counts as inhibited. The low end stands for inhibition by little substance, the high end for a need for much substance.

Converted amounts (≈) assume the structure as drawn.

Data set [1] relates to Mycolicibacterium smegmatis. Description: Antitubercular activity against Mycobacterium smegmatis ATCC 700084 after 48 hrs by microdilution assay. It counts as functional. In general terms: Dilution methods test growth across graded concentrations, often in twofold steps.
Data set [2] relates to Mycobacterium tuberculosis. Description: Antitubercular activity against Mycobacterium tuberculosis H37Rv. Type of data set: functional.
Another data set has as its system RWPE-1. Description: Cytotoxicity against human RWPE-1 cells assessed as cell viability at 50 ug/ml after 72 hrs by MTT assay. It counts as toxicity, cell-based. The note with it: rwpe-1, 72 h, dose 50 µg/ml. A general note: Tetrazolium assays rely on reduction of a dye to a coloured formazan, in cell work by metabolically active cells.

As to `Nc1ccc2oc3ccccc3c2c1`, the results for the MIC in data set [1] and in data set [2] were 3.13 µg/mL (≈ 17.1 µM) and 64 µg/mL (≈ 349 µM), respectively. Further, in the data set on RWPE-1, the Activity entry is “Toxic”.

In the case of `Nc1ccc2[nH]ccc2c1`, in data set [1], the MIC is greater than 100 µg/mL.

`Nc1ccc2c(c1)-c1ccccc1S2(=O)=O` returned an MIC in data set [1] greater than 100 µg/mL.

Molecule `CCCCCCNc1ccc2sc3ccccc3c2c1` came in with an MIC in data set [1] greater than 100 µg/mL.

As for `c1ccc2c(c1)sc1ccc(N3CCOCC3)cc12`, in data set [1], the MIC is greater than 100 µg/mL.

Regarding `Nc1ccc2sc3ccccc3c2c1`, the results for the minimal inhibitory concentration (MIC) in data set [1] and in data set [2] were 3.13 µg/mL (≈ 15.7 µM) and 128 µg/mL (≈ 642 µM), respectively. Also, the Activity result in the data set with RWPE-1 is recorded as “Toxic”.

Molecule `c1ccc2c(c1)CCN2c1ccc2sc3ccccc3c2c1` gave an MIC in data set [1] greater than 100 µg/mL.

Turning to `O=S(=O)(Nc1ccc2sc3ccccc3c2c1)c1ccccc1`, in data set [1], the MIC was greater than 100 µg/mL.

For the molecule `Nc1ccc2ccsc2c1`, in data set [1], it took 0.78 µg/mL (≈ 5.23 µM) to inhibit growth (MIC). In addition, the Activity entry with RWPE-1 is “Toxic”.

Turning to `Nc1ccc2[nH]c3ccccc3c2c1`, the MIC in data set [1] was greater than 100 µg/mL; in data set [2], 16 µg/mL (≈ 87.8 µM).

Consider `c1ccc2c(c1)CCCN2c1ccc2sc3ccccc3c2c1`, for which the MIC in data set [1] is greater than 100 µg/mL.

The molecule `CCNc1ccc2sc3ccccc3c2c1` displayed an MIC in data set [1] greater than 100 µg/mL.

In data set [1], `Nc1ccc2sccc2c1` displayed an MIC of 0.78 µg/mL (≈ 5.23 µM). Further, the Activity entry in the data set on RWPE-1 was “Toxic”.

`Nc1ccc2occc2c1` returned an MIC in data set [1] of 1.56 µg/mL (≈ 11.7 µM). In addition, the Activity result with RWPE-1 is given as “Toxic”.

With `CN(c1ccccc1)c1ccc2sc3ccccc3c2c1`, the MIC in data set [1] was greater than 100 µg/mL.

As to `Nc1ccc2c(c1)-c1cc(N)ccc1S2(=O)=O`, the MIC in data set [1] was greater than 100 µg/mL; in data set [2] it was less than 2 µg/mL.

`c1ccc(Nc2ccc3sc4ccccc4c3c2)cc1`: in data set [1], the MIC was greater than 100 µg/mL.

For `Nc1cccc2c1sc1ccccc12`, it took 12.5 µg/mL (≈ 62.7 µM) to inhibit growth in data set [1] (MIC).

Consider `OB(O)c1ccc2sc3ccccc3c2c1`, for which, in data set [1], the MIC amounted to 50 µg/mL (≈ 219 µM).

In data set [1], `CCN(CC)c1ccc2sc3ccccc3c2c1` returned an MIC greater than 100 µg/mL.

`c1ccc2c(c1)sc1ccc(N3CCCC3)cc12` registered an MIC in data set [1] greater than 100 µg/mL.

`Nc1cccc2sccc12` came in with an MIC in data set [1] of 50 µg/mL (≈ 335 µM).

Molecule `OB(O)c1cccc2c1sc1ccccc12` had an MIC in data set [1] greater than 100 µg/mL.

As for `c1ccc2c(c1)sc1ccc(NC3CCCCC3)cc12`, the minimum inhibitory concentration (MIC) in data set [1] was greater than 100 µg/mL.

In data set [1], `c1ccc2c(c1)sc1ccc(-n3cccc3)cc12` registered an MIC greater than 100 µg/mL.

For the molecule `Nc1ccc2c(c1)-c1ccccc1C2`, the results for the MIC in data set [1] and in data set [2] were 25 µg/mL (≈ 138 µM) and 32 µg/mL (≈ 177 µM), respectively.

Turning to `Nc1ccc2sc3ccc(N)cc3c2c1`, the minimum inhibitory concentration (MIC) in data set [1] is greater than 100 µg/mL.

`NNC(=O)c1ccncc1` [ISONIAZID] yielded an MIC in data set [1] of 3.13 µg/mL (≈ 22.8 µM).

These data come from ChEMBL document CHEMBL5143614, “Structure-activity relationship of 2-aminodibenzothiophene pharmacophore and the discovery of aminobenzothiophenes as potent inhibitors of Mycobacterium smegmatis” (Bioorg Med Chem Lett, 2022).
